Source: patent publication US20210260141A1, “MSC- AND EXOSOME-BASED IMMUNOTHERAPY” (EXOSTEM BIOTEC LTD., priority 2018, published 2021)

B1: miR-34: microRNA; pre-miR SEQ ID NO: 10, mature 5p SEQ ID NO: 11, 3p SEQ ID NO: 12 (nucleic acid, listed as Homo sapiens)
chain: UGGCAGUGUCUUAGCUGGUUGUUGUGAGCAAUAGUAAGGAAGCAAUCAGCAAGUAUACUGCCCUA
modifications: expressed or natural sequence

Tests used:
Type in all cases: cell-based
glioma stem cells (GSCs) = assay: self-renewal of GSCs (secondary neurosphere formation) after coculture with MSCs or addition of their exosomes; details: trans-well coculture
3′ UTR of PD-L1 = assay: PD-L1 3′ UTR luciferase reporter in GSCs cocultured with MSCs or treated with their exosomes; details: pre-miR expressed in CH-, AD- and UC-MSCs, trans-well coculture with GSCs
PD-1 3′ UTR = PD-1 3′ UTR luciferase reporter in HEK293 cells; details: miR transfected in CH-MSCs; same whether cocultured or exosomes added
Method: PD-L1 is only half of the immune surveillance axis, its receptor PD-1 is expressed on immune cells and is required for cancer cell immune inhibition. […] CH-MSCs were also transfected with miR-124, miR-34, miR-30b and a combination of all three and then PD-1 expression was assessed. […] The effect was the same whether cells were cocultured, or whether exosomes were added. miR-34 has already been reported to target PD-L1, thus this miR and miR-124 are both effective at targeting both sides of the PD-L1/PD-1 axis.

[1] = miR expressed in CH- and UC-MSCs

| Molecule | effect on self-renewal of GSCs (glioma stem cells (GSCs); miR expressed in AD-MSCs) | effect on self-renewal of GSCs (glioma stem cells (GSCs); [1]) | luciferase expression (PD-L1 reporter) (3′ UTR of PD-L1) | effect on PD-1 reduction (luciferase reporter) (PD-1 3′ UTR) |
| --- | --- | --- | --- | --- |
| miR-29c: microRNA; pre-miR SEQ ID NO: 4, mature 5p SEQ ID NO: 5, 3p SEQ ID NO: 6 (ACCGAUUUCUCCUGGUGUUCAGAGUCUGUUUUUGUCUAGCACCAUUUGAAAUCGGUUA; expressed or natural sequence; listed as Homo sapiens) | more pronounced effect | negligible effect | decreased luciferase expression |  |
| miR-30b: microRNA; pre-miR SEQ ID NO: 13, mature 5p SEQ ID NO: 14, 3p SEQ ID NO: 15 (UGUAAACAUCCUACACUCAGCUGUAAUACAUGGAUUGGCUGGGAGGUGGAUGUUUACUUC; expressed or natural sequence; listed as Homo sapiens) |  |  |  | enhanced the PD-1 reduction |
| miR-378: microRNA; pre-miR SEQ ID NO: 32, mature 5p SEQ ID NO: 33, 3p SEQ ID NO: 34 (CUCCUGACUCCAGGUCCUGUGUGUUACCUAGAAAUAGCACUGGACUUGGAGUCAGAAGGC; expressed or natural sequence; listed as Homo sapiens) | more pronounced effect | negligible effect | decreased luciferase expression |  |
| B1 |  |  |  | enhanced the PD-1 reduction |
